The source of these data is US20160009772A1, “CELL PENETRATING PEPTIDES WHICH BIND IRF5” (priority 2012, published 2016).

In one series the target is T1, Wild type IRF5 (222-467) (Homo sapiens, UniProt Q13568).
T1 construct: S430D phosphomimetic construct of IRF5 (222-467) as well as WT (222-467)
As to the kind of experiment: FRET IRF5 dimerization inhibition assay (TR-FRET), WT construct. The series is classed as binding.

Series [1] concerns NFκB nuclear translocation in HeLa cells. The series can be described thus: NFκB translocation assay (TNFα mediated, high content imaging). The series is classed as cell-based. Particulars: 50 μM peptide; TNFα induced NFkB translocation in HeLa cells. As to the method:
The selectivity of the CPP's over NFκB was determined using a high content screening assay wherein TNFα mediated nuclear translocation of NFκB was determined by imaging.
HeLa cells were plated at 5000 cells/well in 96 well Perkin Elmer ViewPlates and incubated overnight at 37 C. Media was aspirated and compounds pre-diluted in 0.05% BSA Hanks/20 mM HEPES were added in duplicate at various concentrations for 30 minutes. Wells were stimulated with 20 μl of 150 ng/ml TNFα for 30 minutes at 37 C. Wells were aspirated and the cells were fixed with 3.7% formaldehyde solution for 15 minutes at room temperature. The fixative was removed and the plates were washed with PBS. The NFkB translocation assay, based upon detection of an antibody to p65 (Thermo-Fisher), was completed and read on the Perkin Elmer Operetta at 40×.

A further series has as its system THP-1 cells. As to the kind of experiment: Cytotoxicity (cell titer glo) as headed in Table 3. Particulars: cytotoxicity defined as greater than 40% loss of cells. The format is cell-based, human. As for the experimental part: THP-1 cells obtained from ATCC were seeded at 50 k cells/100 μl/well in a 96 well plate (Corning Cat#3340). Peptides were dissolved in DMSO at 10 mM as stock solution, then 1:10 in water at 1 mM, mix well. R848 (Enzo Cat#ALX-420-038-M005) was dissolved in DMSO (Sigma Cat#D2650) at 10 mM. […] R848 was added to the 96-well cell plate at a final concentration of 10 μM, and cells were incubated at 37° C. for 24 h. The supernatant was tested for IL6 by Alphalisa (Perkin Elmer AL233C) as per manufacturer's instructions. Viability of the cells was measured by cell titer glo (Promega).

A further series concerns the target T2, IRF5 (222-467, S430D) (Homo sapiens, UniProt Q13568, S440D).
T2 construct: 250 nM His tag IRF5(222-467, S430D); 100 nM biotin tag IRF5(222-467, S430D)
As to the kind of experiment: FRET IRF5 dimerization inhibition assay (TR-FRET), S430D construct. The format is binding.

Where [2] appears, read: Table 2, WT IRF5 (222-467), read-out: WT IC50.
[3] abbreviates: Table 1, WT IRF5 (222-467), average of 3 experiments ± s.d., read-out: WT IC50.
Where [4] appears, read: Table 1, S430D phosphomimetic construct of IRF5 (222-467), average of 3 experiments ± s.d., read-out: S430D IC50.

Read-outs that look alike come from different tables or passages of the source.

T2 sequence (Q13568 232-477 S440D): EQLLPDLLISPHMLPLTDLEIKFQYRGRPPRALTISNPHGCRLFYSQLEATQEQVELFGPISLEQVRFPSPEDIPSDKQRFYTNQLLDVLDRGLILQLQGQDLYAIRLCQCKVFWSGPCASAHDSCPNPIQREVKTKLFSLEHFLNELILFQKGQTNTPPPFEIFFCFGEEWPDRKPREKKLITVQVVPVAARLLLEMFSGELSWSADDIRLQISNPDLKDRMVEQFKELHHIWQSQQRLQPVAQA
T1 sequence (Q13568 232-477): as the sequence (Q13568 232-477 S440D) above, with D209S counted along it
Procedure for IRF5 (222-467, S430D): (§1) The following steps may then be performed: • 1) Prepare 100 nM of biotin-IRF5(S430D) (0.96 mg/ml or 32 uM,) and 250 nM His-IRF5(S430D) (1.51 mg/ml or 51 uM,) in AB1 • 2) Add 50 ul/well of solution in (1) into peptide solutions in 96-well PP plates as described above and incubate at RT for 20 min. • 3) Prepare 10 nM Eu-labeled streptavidin and 80 nM APC-labeled anti-His Ab in AB2 (AB1 w/o DTT) containing 5% DMSO and add 17 ul/well into solutions in (4). • 4) Transfer 30 ul/well into 384-well PP plate (Matrix) and incubate at 40 C for 1 day.
(§2) To test the ability of compounds to inhibit IRF5 dimerization a time-resolved fluorescence resonance energy transfer (TR-FRET) was developed. Binding of recombinant His tagged IRF5 (222-467 constructs) to recombinant biotin tagged IRF5 was measured by FRET between Europium labeled anti-GST antibody and Stretavidin-conjugated Allophycocyanin. […] The IRF5 S430 and WT (222-467) constructs were then used to test the ability of compounds to inhibit dimerization. […] Fifty microliters per well of 100 nM biotin tag IRF5(222-467, S430D) and 250 nM His tag IRF5(222-467, S430D) in Assay Buffer (50 mM Tris-HCl, pH 7.4, 100 mM NaCl, 1 mM DTT and 0.2 mg/ml BSA) were added. The samples were incubated at room temperature for 20 min. Seventeen microliters per well of detection solution containing 10 nM europium (Eu) conjugated streptavidin and 80 nM allophycocyanin (APC) conjugated anti-His antibody (Columbia Biosciences) in Assay Buffer (without DTT) were added. The samples were incubated at room temperature for 60 min followed by overnight incubation at 40 C and 30 ul per well were transferred to 384-well polystyrene plates (Matrix, Thermal Scientific) in duplicates. Assay signals were monitored by reading excitation at 340 nm and emission fluorescence at 615 nm and 665 nm on an Envision reader. TR-FRET signals were calculated by the ratio of acceptor to donor signals after subtracting both blank and donor cross-talk values from acceptor signal (Huang, K S and Vassilev, L T, Methods Enzymol., 399, 717-728 (2005)). The data were processed in Excel XLfit and the IC50 values were calculated using a nonlinear curve-fitting algorithm (four parameter equation). The data represent an average of 3 independent experiments (each run in triplicates) and the reported errors represent standard deviation (s.d.).
Procedure for Wild type IRF5 (222-467): as §1, §2

For the compound “Ac-IRLQISNPDLKDLMVQWFKDGGPSSGAPPPS-NH2 [SEQ ID NO 9]”, the IC50 at Wild type IRF5 (222-467) (setting [2]) was found to be 1.4 µM.
The same measure, in the same setting: with “Ac-PFPPLPIGEEAPKDDMVRFFKDLHQYLNVV-NH2 [SEQ ID NO 10]” the figure was 0.35 µM.
For “Ac-MIILIISFPKHKDWKVILVK-NH2 [SEQ ID NO 14]”, the “NFkB selectivity (50 μM)” value in series [1] was “No inhibition”. Further, the “Cytotoxicity in THP-1 cells at 10 μM” value in the series with THP-1 cells is reported as “None”.
As to `CSCC[C@H](NC(C)=O)C(=O)N[C@@H](C)C(=O)N[C@@H](CC(N)=O)C(=O)N[C@@H](CC(C)C)C(=O)NCC(=O)N[C@@H](Cc1ccc(O)cc1)C(=O)N[C@@H](Cc1c[nH]c2ccccc12)C(=O)N[C@@H](CC(C)C)C(=O)N[C@@H](C)C(=O)N[C@@H](CC(C)C)C(=O)N[C@@H](CC(C)C)C(=O)N[C@@H](Cc1ccccc1)C(=O)N[C@H](C(=O)N[C@H](C(=O)N[C@@H](CCSC)C(=O)N[C@@H](Cc1c[nH]c2ccccc12)C(=O)N[C@H](C(=O)N[C@@H](CC(=O)O)C(=O)N[C@H](C(=O)NCC(=O)N[C@@H](CC(C)C)C(=O)N[C@@H](Cc1ccccc1)C(=O)N[C@@H](CCCCN)C(=O)N[C@@H](CCCCN)C(=O)N[C@@H](CCCNC(=N)N)C(=O)N1CCC[C@H]1C(=O)N[C@@H](CCCCN)C(=O)N1CCC[C@H]1C(N)=O)C(C)C)[C@@H](C)O)[C@@H](C)O)C(C)C` [SEQ ID NO 5], the “NFkB selectivity (50 μM)” value in series [1] was “No inhibition”. Besides, the IC50 on Wild type IRF5 (222-467) (setting [3]) is 22.4 ± 6.2 µM; on IRF5 (222-467, S430D) (setting [4]) it was 26.6 ± 5.4 µM. The “Cytotoxicity in THP-1 cells at 10 μM” value with THP-1 cells is recorded as “None”.
The matching figures for `CSCC[C@H](NC(C)=O)C(=O)N[C@@H](C)C(=O)N[C@@H](CC(N)=O)C(=O)N[C@@H](CC(C)C)C(=O)NCC(=O)N[C@@H](Cc1ccc(O)cc1)C(=O)N[C@@H](Cc1c[nH]c2ccccc12)C(=O)N[C@@H](CC(C)C)C(=O)N[C@@H](CC(C)C)C(=O)N[C@@H](C)C(=O)N[C@@H](CC(C)C)C(=O)N[C@@H](Cc1ccccc1)C(=O)N[C@H](C(=O)N[C@H](C(=O)N[C@@H](Cc1ccc(O)cc1)C(=O)N[C@@H](Cc1c[nH]c2ccccc12)C(=O)N[C@H](C(=O)N[C@@H](CC(=O)O)C(=O)N[C@@H](CC(C)C)C(=O)NCC(=O)N[C@@H](CC(C)C)C(=O)N[C@H](C(=O)N[C@@H](CCCCN)C(=O)N[C@@H](CCCCN)C(=O)N[C@@H](CCCNC(=N)N)C(=O)N1CCC[C@H]1C(=O)N[C@@H](CCCCN)C(=O)N1CCC[C@H]1C(N)=O)C(C)C)[C@@H](C)O)[C@@H](C)O)C(C)C` [SEQ ID NO 6]: “No inhibition”, 15.3 ± 4.8 µM, 15.4 ± 5.8 µM and “None”.
In the same order, the values of `CSCC[C@H](NC(C)=O)C(=O)N[C@@H](C)C(=O)N[C@@H](CC(N)=O)C(=O)N[C@@H](CC(C)C)C(=O)NCC(=O)N[C@@H](Cc1ccc(O)cc1)C(=O)N[C@@H](Cc1c[nH]c2ccccc12)C(=O)N[C@@H](CC(C)C)C(=O)N[C@@H](Cc1ccc(O)cc1)C(=O)N[C@@H](C)C(=O)N[C@@H](CC(C)C)C(=O)N[C@@H](Cc1ccccc1)C(=O)N[C@@H](CC(C)C)C(=O)N[C@H](C(=O)N[C@@H](CCSC)C(=O)N[C@H](C(=O)N[C@H](C(=O)N[C@@H](CC(=O)O)C(=O)N[C@H](C(=O)NCC(=O)N[C@@H](CC(C)C)C(=O)N[C@@H](Cc1ccccc1)C(=O)N[C@@H](CCCCN)C(=O)N[C@@H](CCCCN)C(=O)N[C@@H](CCCNC(=N)N)C(=O)N1CCC[C@H]1C(=O)N[C@@H](CCCCN)C(=O)N1CCC[C@H]1C(N)=O)C(C)C)[C@@H](C)O)C(C)C)[C@@H](C)O` [SEQ ID NO 7] are “No inhibition”, 41.9 ± 6.4 µM, 34.2 ± 5.5 µM and “None”.
“Ac-KDLMVQWFKDGGPSSGAPPPS-NH2 [SEQ ID NO 8]”: the IC50 on Wild type IRF5 (222-467) (setting [2]) came out at 0.79 µM; on IRF5 (222-467, S430D) (Table 2, S430D phosphomimetic construct of IRF5 (222-467), read-out: S430D IC50), 1.68 µM.
Consider “Ac-IRLQISNPYLKFIPLKRAIWLIK-NH2 [SEQ ID NO 13]”, for which the “NFkB selectivity (50 μM)” value in series [1] is “No inhibition”. Further, the “Cytotoxicity in THP-1 cells at 10 μM” value in the series on THP-1 cells is recorded as “None”.
Turning to `CSCC[C@H](NC(C)=O)C(=O)N[C@@H](C)C(=O)N[C@@H](CC(N)=O)C(=O)N[C@@H](CC(C)C)C(=O)NCC(=O)N[C@@H](Cc1ccc(O)cc1)C(=O)N[C@@H](Cc1c[nH]c2ccccc12)C(=O)N[C@@H](CC(C)C)C(=O)N[C@@H](CC(C)C)C(=O)N[C@@H](CC(C)C)C(=O)N[C@@H](CC(C)C)C(=O)N[C@@H](Cc1ccccc1)C(=O)N[C@H](C(=O)N[C@H](C(=O)N[C@@H](CCSC)C(=O)N[C@@H](Cc1c[nH]c2ccccc12)C(=O)N[C@H](C(=O)N[C@@H](CC(=O)O)C(=O)N[C@H](C(=O)NCC(=O)N[C@@H](CC(C)C)C(=O)N[C@@H](C)C(=O)N[C@@H](CCCCN)C(=O)N[C@@H](CCCCN)C(=O)N[C@@H](CCCNC(=N)N)C(=O)N1CCC[C@H]1C(=O)N[C@@H](CCCCN)C(=O)N1CCC[C@H]1C(N)=O)C(C)C)[C@@H](C)O)[C@@H](C)O)C(C)C` [SEQ ID NO 4], in series [1], the “NFkB selectivity (50 μM)” value is “No inhibition”. Besides, the IC50 was 19.5 ± 4 µM at Wild type IRF5 (222-467) (setting [3]) and 26.4 ± 4.5 µM on IRF5 (222-467, S430D) (setting [4]). Further, the “Cytotoxicity in THP-1 cells at 10 μM” value in the series on THP-1 cells was “None”.
As to “Ac-YLKFIPLKRAIWLIK-NH2 [SEQ ID NO 23, Ac-YLKFIPLKRAIWLIK-NH2, reference compound]”, the IC50 against Wild type IRF5 (222-467) was more than 75 µM; on IRF5 (222-467, S430D) it was more than 75 µM. Besides, the “affinity in FRET dimerization assay” value at IRF5 (222-467, S430D) (S430D and WT IRF5 (222-467) constructs) is listed as “does not display any affinity”.
